Data as given in ChEMBL document CHEMBL1131339 (J Med Chem, 1998).

What was measured:
[1] = tested on: Melanophore; test: Effective concentration required to produce 50% of the maximal pigment aggregation in Xenopus laevis dermal melanophore cell line; No agonist effect detected at 100 uM; format: functional, cell-based, frog
[2] = tested on: Melanophore; test: Inhibitory concentration against melatonin-induced pigment aggregation by 50% in Xenopus laevis dermal melanophore cell line; format: functional, cell-based, frog
[3] = molecular target: Melatonin receptor (Gallus gallus, UniProt P49288+P51050+P49285); test: Binding affinity towards melatonin receptor, determined in chicken brain membranes using [2-125I]melatonin; format: cell membranes, Membrane
[4] = tested on: Melanophore; test: Effective concentration required to produce 50% of the maximal pigment aggregation in Xenopus laevis dermal melanophore cell line; format: functional, cell-based, frog
[5] = tested on: Melanophore; test: Inhibitory concentration against melatonin-induced pigment aggregation by 50% in Xenopus laevis dermal melanophore cell line; Antagonism detected at 100 uM but IC50 not calculated; format: functional, cell-based, frog

Row | Structure (SMILES) | EC50 [1] | IC50 [2] | Ki [3] [nM] | EC50 ([4]; Xenopus laevis, Melanophore) [nM] | IC50 [5] | EC50 ([4]; melanophore) [nM]
1 | O=C(CBr)NC1CCc2[nH]c3ccccc3c2C1 (stereo not given) | Not Active | 39000 nM |  |  |  | 
2 | COc1ccc2c(c1)c1c(n2C)CCC1CNC(=O)C1CC1 (stereo not given) | Not Active | 11000 nM | 459 |  |  | 
3 | CCCC(=O)NC1CCc2[nH]c3ccccc3c2C1 (stereo not given) |  | Not Active |  | 12600 |  | 
4 | CCC(=O)NCC1CCc2c1c1ccccc1n2C (stereo not given) |  |  | 272 | 4040 | Antagonist | 
5 | CCCC(=O)NCC1CCCc2c1c1cc(OC)ccc1n2C (stereo not given) |  | Not Active | 0.378 | 0.44 |  | 
6 | CC(=O)NC1CCc2[nH]c3ccccc3c2C1 (stereo not given) | Not Active | 64000 nM |  |  |  | 
7 | Cn1c2c(c3ccccc31)C(CNC(=O)C1CC1)CCCC2 (stereo not given) | Not Active | 56000 nM | 1220 |  |  | 
8 | CCCC(=O)NCC1CCCCc2c1c1ccccc1n2C (stereo not given) | Not Active | 53000 nM | 84 |  |  | 
9 | CC(=O)NCC1CCCc2c1c1cc(Cl)ccc1n2C (stereo not given) |  | Not Active | 2.12 | 5.2 |  | 
10 | Cn1c2c(c3ccccc31)C(CNC(=O)C1CC1)CCC2 (stereo not given) | Not Active | 15000 nM | 4460 |  |  | 
11 | Cn1c2c(c3ccccc31)C(CNC(=O)C1CCC1)CCCC2 (stereo not given) | Not Active | 44000 nM | 1690 |  |  | 
12 | CC(=O)NCC1CCCc2c1c1cc(C)ccc1n2C (stereo not given) |  | Not Active | 16.1 | 108 |  | 
13 | CC(=O)NCC1CCCc2c1c1cc(OC(F)(F)F)ccc1n2C (stereo not given) |  | 42000 nM | 141.7 | 2030 |  | 
14 | CCC(=O)NC1CCc2[nH]c3ccc(OC)cc3c2C1 (stereo not given) |  | Not Active |  | 7 |  | 
15 | Cn1c2c(c3ccccc31)C(CNC(=O)C1CCC1)CC2 (stereo not given) | Not Active | 50000 nM | 5700 |  |  | 
16 | CCCC(=O)NCC1CCc2c1c1cc(OC)ccc1n2C (stereo not given) |  | 14000 nM | 23 | 335 |  | 
17 | COc1ccc2[nH]c3c(c2c1)CC(NC(C)=O)CC3 (stereo not given) |  | Not Active |  | 32 |  | 
18 | CCC(=O)NCC1CCc2c1c1cc(OC)ccc1n2C (single isomer, unassigned; (-)) |  |  | 1.7 |  |  | 3.4

Row | Structure (SMILES) | EC50 [1] | IC50 [2] | Ki [3] [nM] | EC50 ([4]; Xenopus laevis, Melanophore) [nM] | IC50 [5] | EC50 ([4]; melanophore) [nM]
19 | Cn1c2c(c3cc(Cl)ccc31)C(CNC(=O)C1CCC1)CCC2 (stereo not given) | Not Active | 14000 nM | 187.2 |  |  | 
20 | CC(=O)NCC1CCCCc2c1c1ccccc1n2C (stereo not given) | Not Active | 54000 nM | 424 |  |  | 
21 | O=C(NC1CCc2[nH]c3ccccc3c2C1)C(F)(F)F (stereo not given) | Not Active | 43000 nM |  |  |  | 
22 | COc1ccc2[nH]c3c(c2c1)CC(NC(=O)C1CC1)CC3 (stereo not given) |  | Not Active | 143 | 195 |  | 
23 | CC(=O)NCCc1c(Cc2ccccc2)[nH]c2ccccc12 [LUZINDOLE] | Not Active | 2100 nM | 1606 |  |  | 
24 | CCC(=O)NCC1CCCc2c1c1cc(OC)ccc1n2C (stereo not given) |  | Not Active | 1.44 | 0.31 |  | 
25 | CC(=O)NCC1CCc2c1c1ccccc1n2C (stereo not given) |  | Not Active | 516 | 6360 |  | 
26 | COc1ccc2[nH]c3c(c2c1)CC(NC(=O)C(F)(F)F)CC3 (stereo not given) |  | Not Active |  | 32 |  | 
27 | COc1ccc2c(c1)c1c(n2C)CCCC1CNC(=O)C1CCC1 (stereo not given) |  | Not Active | 271 | 139 |  | 
28 | CCCC(=O)NC1CCc2[nH]c3ccc(OC)cc3c2C1 (stereo not given) |  | Not Active |  | 25 |  | 
29 | COc1ccc2c(c1)c1c(n2C)CCCC1CNC(C)=O (single isomer, unassigned; (+)) |  |  | 48.4 |  |  | 14.8
30 | CCCC(=O)NCC1CCCc2c1c1ccccc1n2C (stereo not given) |  | Not Active | 215 | 966 |  | 
31 | CC(=O)NCC1CCCc2c1c1ccccc1n2C (stereo in doubt; 9a) |  | Not Active | 227 |  |  | 599
32 | CCCCC(=O)NCC1CCCc2c1c1cc(OC)ccc1n2C (stereo not given) |  | Not Active | 82 | 132 |  | 
33 | CC(=O)NCC1CCCc2c1c1ccccc1n2C (single isomer, unassigned; (+)) | Not Active | 6400 nM | 708 |  |  | 
34 | COc1ccc2c(c1)c1c(n2C)CCCCC1CNC(C)=O (stereo not given) |  | 10000 nM | 24 | 258 |  | 
35 | CCC(Br)C(=O)NC1CCc2[nH]c3ccccc3c2C1 (stereo not given) | Not Active | 32000 nM | > 10000 |  |  | 
